From publication PMC12974487, “Inhibition of FicD-mediated AMPylation and deAMPylation by isoprenoid diphosphates” (Proceedings of the National Academy of Sciences of the …, 2026) come the findings set out here.

This experiment concerns the target T1, FicD^R374H (Homo sapiens, UniProt Q9BVA6, R374H).
T1 construct: Wild-type FicD (residues 105-458) and all mutants were expressed as N-terminal 6xHis-Sumo fusions; 6xHis-Sumo (N, cleaved yes); made in house; host or cells: Rosetta(DE3) E. coli
T1 sequence (Q9BVA6 105-458 R374H): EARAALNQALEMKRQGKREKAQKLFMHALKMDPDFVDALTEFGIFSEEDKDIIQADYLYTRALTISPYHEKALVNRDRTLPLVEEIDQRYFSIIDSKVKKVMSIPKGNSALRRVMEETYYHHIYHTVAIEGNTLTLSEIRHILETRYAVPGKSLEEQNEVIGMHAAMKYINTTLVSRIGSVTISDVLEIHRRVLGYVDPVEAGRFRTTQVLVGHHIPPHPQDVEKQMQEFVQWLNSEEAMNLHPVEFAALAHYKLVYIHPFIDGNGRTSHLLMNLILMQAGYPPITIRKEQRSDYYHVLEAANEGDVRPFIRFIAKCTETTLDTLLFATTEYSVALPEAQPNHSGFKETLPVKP
Nature of the experiment: AMPylation of Δ26hBiP^T229A by pathogenic variant FicD^R374H. Type of experiment: biochemical. The settings on record: indicated concentrations of FPP. An excerpt:
Fig. 5. Crystal structure of FPP inhibitor bound to FicD active site. […] FPP (cyan stick) and Mg^2+ (cyan sphere) in the pocket of FicD shown as APBS electrostatic surface with positive areas in blue, negative in red, and neutral in white (contour level: ±5 kBT/e) (Right). […] (C–E) AMPylation assays of Δ26hBiP^T229A in the presence of the indicated concentration of FPP using the pathogenic human variants (C) FicD^R371S, (D) FicD^R374H and (E) FicD^R374C. AMPylated BiP and Fic were quantified by immunodetection, and total BiP was quantified by CBB. […]
Isothermal Titration Calorimetry
Proteins were dialyzed against 25mM HEPES pH 7.4/100mM KCl/10% glycerol prior to titration.
Dialyzed proteins were then spun down at 21,000G for 15 minutes at 4C to remove trace insoluble material. The protein concentration was measured spectrophotometrically and then diluted to working concentration with 25mM HEPES pH 7.4/100mM KCl/10% glycerol. MgCl2 was added to proteins to a final concentration of 4mM. ITC experiments were performed in a Micro-Cal PEAQ-ITC (Malvern Panalytical, Worcestershire, UK) calorimeter with a stirred 206.2 μL reaction cell held at 20 °C. 250μM FPP was titrated into 25uM Δ104hFicL258D with 750rpm stirring. The first injection was 0.5 μL, followed by twenty 1.9 μL injections. […]
Thermogram and binding figures were plotted in […]

Structures are written as SMILES. Entries after “also recorded” stand apart in the source; their conditions may differ.

In the case of `CC(C)=CCC/C(C)=C/CC/C(C)=C/COP(=O)(O)OP(=O)(O)O` [FPP, farnesyl-pyrophosphate], the “FPP inhibition of FicD^R374H mediated AMPylation” value is given as “inhibition; also recorded: inhibited”.
